Measurements from EP0075141A1, “1,2,5-Oxadiazole-3,4-dicarboxylic-acid derivatives, process for their production, their use and pharmaceutical preparations containing them” (CASSELLA Aktiengesellschaft, priority 1981, dated 1983).

Test system: Bastardhunden
Assay: Haemodynamic study of antianginal and antihypertensive action in anaesthetised mongrel dogs
Type: in vivo
Settings: dogs under pentobarbital or urethane-chloralose anaesthesia
Protocol: Die Untersuchungen über die antianginöse und antihypertensive Wirkung der Verbindungen der Formel I wurden an Bastardhunden beiderlei Geschlechts in Pentobarbital-Narkose (30 bis 40 mg/ kg i.v.) oder in Urethan-Chloralose-Narkose (3 ml/kg Urethan-Chloralose-Gemisch i.v. = 20 mg/kg Chloralose und 250 mg/kg Urethan) durchgeführt. Die Beatmung der Tiere erfolgte mit einem Bird-Mark-7-Respirator. Der endexpiratorische Kohlensäuregehalt (gemessen mit einem Ultrarotabsorptionsschreiber) betrug zwischen 4,5 und 5 Vol.%. Während des gesamten Versuchs erhielten die Tiere mit Pentobarbital-Narkose eine Dauerinfusion von Pentobarbital i.v. = 4 mg(in 6 ml)/kg/h, um eine konstante Narkosetiefe zu gewährleisten; die Tiere mit Urethan-Chloralose-Narkose erhielten keine Dauerinfusion. Die Infusion wurde durch die Vena cephalica gegeben. Nach der Präparation des Versuchstieres wurde ca. 1 Stunde gewartet, bis sich alle haemodynamischen Parameter eingestellt hatten (steady state). Danach wurde mit dem eigentlichen Versuch begonnen.
Zur Bestimmung des mittleren Blutdrucks (=BDm) wurde der systolische und diastolische Blutdruck peripher in der Arteria femora1is über einen Statham-Druckaufnehmer gemessen. Ein über die Arteria carotis in den linken Ventrikel geschobener Millartip-Katheter lieferte das Signal für den linksventrikulären enddiastolischen Druck (=LVEDP) und die Herzfrequenz (=HF). Mit einem zweiten, über die Venajugularis eingeschobenen Tip-Katheter wurde der mittlere Blutdruck (=PAP) in der Arteria pulmonalis erfaßt.

SMILES: CCCNC(=O)c1nonc1C(=O)NCCC [CH3CH2CH2NH- / CH3CH2CH2NH-, 1,2,5-Oxadiazol-3,4-bis-(carbonsäurepropylamid)]
- BDm Δ (mittlerer peripherer Blutdruck) (Dosis 1 mg/kg): -35 mmHg
- HF Δ (Herzfrequenz) (Dosis 1 mg/kg): 0 b/min
- LVEDP Δ (linksventrikulärer enddiastolischer Druck) (Dosis 1 mg/kg): -0,5 mmHg
- PAP Δ (mittlerer Pulmonalarteriendruck) (Dosis 1 mg/kg): +1,1 mmHg

SMILES: CNC(=O)c1nonc1C(=O)NC [H2CNH- / H3CNH-, l,2,5-0xadiazol-3,4-bis-(carbonsäuremethylamid)]
- BDm Δ (mittlerer peripherer Blutdruck) (Dosis 0,5 mg/kg): -35 mmHg
- HF Δ (Herzfrequenz) (Dosis 0,5 mg/kg): +20 b/min
- LVEDP Δ (linksventrikulärer enddiastolischer Druck) (Dosis 0,5 mg/kg): -3,5 mmHg
- PAP Δ (mittlerer Pulmonalarteriendruck) (Dosis 0,5 mg/kg): -3,0 mmHg

SMILES: CCOC(=O)c1nonc1C(=O)NC(C)C [H5C2O- / [drawing] (r5)]
- BDm Δ (mittlerer peripherer Blutdruck) (Dosis 3 mg/kg): -35 mmHg
- LVEDP Δ (linksventrikulärer enddiastolischer Druck) (Dosis 3 mg/kg): -2,5 mmHg
- PAP Δ (mittlerer Pulmonalarteriendruck) (Dosis 3 mg/kg): -2,0 mmHg

SMILES: CCOC(=O)c1nonc1C(=O)NCCCN1CCN(c2ccccc2OC)CC1 [H5C2O- / [drawing] (r7)]
- BDm Δ (mittlerer peripherer Blutdruck) (Dosis 1 mg/kg): -30 mmHg
- LVEDP Δ (linksventrikulärer enddiastolischer Druck) (Dosis 1 mg/kg): -2,5 mmHg
- PAP Δ (mittlerer Pulmonalarteriendruck) (Dosis 1 mg/kg): -1 mmHg

SMILES: O=C(NCCO)c1nonc1C(=O)NCCO [HOCH2CH2NH- / HOCH2CH2NH-, 1,2,5-Oxadiazol-3,4-bis-(carbonsäure-ethanolamid)]
- BDm Δ (mittlerer peripherer Blutdruck) (Dosis 1 mg/kg): -30 mmHg
- HF Δ (Herzfrequenz) (Dosis 1 mg/kg): 0 b/min
- LVEDP Δ (linksventrikulärer enddiastolischer Druck) (Dosis 1 mg/kg): -1 mmHg
- PAP Δ (mittlerer Pulmonalarteriendruck) (Dosis 1 mg/kg): -2,0 mmHg

SMILES: O=C(NCc1cccnc1)c1nonc1C(=O)NCc1cccnc1 [[drawing] / [drawing] (r2)]
- BDm Δ (mittlerer peripherer Blutdruck) (Dosis 3 mg/kg): -45 mmHg
- LVEDP Δ (linksventrikulärer enddiastolischer Druck) (Dosis 3 mg/kg): -8,5 mmHg
- PAP Δ (mittlerer Pulmonalarteriendruck) (Dosis 3 mg/kg): -2,4 mmHg

SMILES: O=C(NC1CCCCC1)c1nonc1C(=O)NC1CCCCC1 [[drawing] / [drawing] (r3)]
- BDm Δ (mittlerer peripherer Blutdruck) (Dosis 1 mg/kg): -55 mmHg
- HF Δ (Herzfrequenz) (Dosis 1 mg/kg): +15 b/min
- LVEDP Δ (linksventrikulärer enddiastolischer Druck) (Dosis 1 mg/kg): -10 mmHg
- PAP Δ (mittlerer Pulmonalarteriendruck) (Dosis 1 mg/kg): -2,7 mmHg
